Values quoted from earlier work as cited in US8657943B2, “1-hydroxy-2-O-acyl-sn-glycero-3-phosphocholine compounds, preparation process, antifouling composition, process for its preparation, method to prevent fouling, method to turn a surface into an antifouling surface, and, covered surface” (UFRJ, IEAPM, UFF, priority 2010, dated 2014).

Tests used:
different cell types = conditions: very low concentrations
mussels = conditions: concentrations of up to 100 ng/L in seawater
Ostrea edulis = conditions: 75 days exposure, 0.24 μg/L

| Substance | concentrations that trigger physiological responses (different cell types) | effect on the growth of mussels (mussels) | larval production (Ostrea edulis) | sex change male to female (Ostrea edulis) |
| --- | --- | --- | --- | --- |
| 1-O-alkyl-2-acetyl-sn-glycero-3-phosphocholine [platelet activating factor] | 10^−12 to 10^−9 M |  |  |  |
| tri-butyl tin [TBT] |  | significant reductions in the growth of mussels | completely inhibited | a delay in changing sex male to female was observed |
